Test results taken from patent publication US20240100105A1, “BACTERIOPHAGE TREATMENT FOR ACNE AND BIOFILMS” (priority 2017, published 2024).

Legend:
[1] = test system: P. acnes PA1 biofilm; experiment: Efficacy of phage mixtures on P. acnes biofilm; format: cell-based, Propionibacterium acnes; details: for Remaining log bacteria after phage or antibiotic treatment of biofilm: phage 10^5 total PFU, Erythromycin 100 μg/mL
Procedure: To test our phage against P. acnes biofilms, the following experiment is performed on biofilms produced in the laboratory. An overnight culture of PA1 is diluted 1:1 with fresh BHIS and incubated for 4 hours at 37° C. after which the culture is once again diluted 1:1 this time with anacrobized BHIS supplemented with 1% glucose (final conc. 0.5%). Next, a 96-well plate (Thermo Fisher Scientific, Waltham, Massachusetts) is seeded with 200 μL of the diluted culture per well. The wells are sealed using 8-well strip caps (Thermo Fisher Scientific, Waltham, Massachusetts). This is incubated for 3 days to let the biofilm form. After 72 hours, 10 μL of either mixture 1 (PAP-12, PA1-9 and PA1-13), mixture 2 (PA7-1, PA1-9 and PA1-13), mixture 3 (PAP-12, PA1-9, PA1-13 and PS7-1) or 2 μL of Erythromycin is added to the relevant wells. The amount of phage added per mixture corresponds to 10^5 total PFU while for the antibiotic Erythromycin, a final concentration of 100 μg/mL (enough to inhibit PA1 growth when not in a biofilm) is used.
At 24 hrs or 48 hrs post-treatment depending on the wells, the medium is carefully removed from each well and the remaining biofilm is picked from each well into a separate Eppendorf tube using a sterile tip. At this point, 1 mL of fresh BHIS is added to the biofilm tubes, sonicated to remove the phage inside for 5 minutes (Elmasonic S 100, at 37 kHz) (Elma Schmidbauer GmbH (Singen, Germany), and centrifuged (4 min, 4000 rpm, 25° C.). The supernatant containing the phage is carefully removed to a clean tube for quantification and the process was repeated a total of 3 times to make sure all phage are removed.
To quantify the surviving bacteria, the pellet is re-suspended in 100 μL BHIS, 10-fold serially diluted in BHIS and plated on BHIS agar plates. The plates are incubated for 72 hrs at 37° C. anaerobically after which the colonies are counted and results rounded to the nearest log. In parallel, the phage quantities inside the biofilm are tested by taking the supernatant set aside earlier, and using the aforementioned plaque assay to assess the original quantities.

[2] = test system: P. granulosum clinical isolates 2004-8, 2004-4 and 2002-1; experiment: Spot/drop assay on clinical isolates of P. granulosum (2004-8, 2004-4 and 2002-1); format: cell-based; details: Clindamycin 1% gel ~10 μL; Erythromycin 20 μg/mL 5 μL, applied directly to bacterial lawn
Procedure: These bacterial strains show sensitivity to Clindamycin (1% gel, ˜10 μL) and Erythromycin (20 μg/mL, 5 μL) when the antibiotics are applied directly to a bacterial lawn of these strains, but are resistant to all the tested phage.

## CC[C@H]1OC(=O)[C@H](C)[C@@H](O[C@H]2C[C@@](C)(OC)[C@@H](O)[C@H](C)O2)[C@H](C)[C@@H](O[C@@H]2O[C@H](C)C[C@H](N(C)C)[C@H]2O)[C@](C)(O)C[C@@H](C)C(=O)[C@H](C)[C@@H](O)[C@]1(C)O [Erythromycin]
[1]; 24 hours post treatment
  Remaining log bacteria after phage or antibiotic treatment of biofilm: More than 9 Logs CFU
[1]; 48 hours post treatment
  Remaining log bacteria after phage or antibiotic treatment of biofilm: 8 Logs CFU
[1]; after 24 hours
  decrease in bacterial counts in biofilm: no visible decrease
[1]; after 48 hours
  remaining bacteria per milliliter: 8 logs
[2]
  response of P. granulosum isolates to antibiotics: sensitivity
